From PubChem BioAssay (NCI)
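Protocol summary: plate cells (96-well), add compound at 5 concentrations, incubate 48 h, interpolate endpoints linearly. Abbreviation: GI50, concentration required for 50% inhibition of growth. At the TGI there is no net growth.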 Calls of active or inactive are those of the source. Rule as the data show it: active = GI50 below about 0.43 µM; inactive = the rest.

Tests used:
Experiment in all cases: NCI tumour cell line growth inhibition, 48 h
[1] = test system: K-562 leukemia
[2] = test system: HOP-18 NSCLC
[3] = test system: MALME-3M melanoma
[4] = test system: HCC-2998 colon
[5] = test system: SK-OV-3 ovarian
[6] = test system: IGROV1 ovarian
[7] = test system: NCI-H522 lung
[8] = test system: CAKI-1 renal
[9] = test system: HCT-15 colon
[10] = test system: DLD-1 colon
[11] = test system: SNB-19 CNS
[12] = test system: SN12K1 renal
[13] = test system: SF-539 CNS
[14] = test system: UACC-257 melanoma
[15] = test system: OVCAR-3 ovarian
[16] = test system: P388 leukemia
[17] = test system: MOLT-4 leukemia
[18] = test system: SK-MEL-2 melanoma
[19] = test system: UO-31 renal
[20] = test system: P388/ADR leukemia
[21] = test system: UACC-62 melanoma
[22] = test system: MCF7 breast
[23] = test system: DMS 273 small cell lung
[24] = test system: SF-295 CNS
[25] = test system: NCI/ADR-RES ovarian
[26] = test system: RXF 393 renal
[27] = test system: HL-60(TB) leukemia
[28] = test system: SF-268 CNS
[29] = test system: SW-620 colon
[30] = test system: CCRF-CEM leukemia
[31] = test system: NCI-H226 lung
[32] = test system: HCT-116 colon
[33] = test system: OVCAR-5 ovarian
[34] = test system: HOP-92 NSCLC
[35] = test system: NCI-H23 lung
[36] = test system: EKVX NSCLC
[37] = test system: HT29 colon
[38] = test system: OVCAR-4 ovarian
[39] = test system: SNB-75 CNS
[40] = test system: U251 CNS
[41] = test system: OVCAR-8 ovarian
[42] = test system: SK-MEL-5 melanoma
[43] = test system: NCI-H460 lung
[44] = test system: RPMI-8226 leukemia
[45] = test system: SK-MEL-28 melanoma
[46] = test system: HOP-62 NSCLC
[47] = test system: LOX IMVI melanoma
[48] = test system: M19-MEL melanoma
[49] = test system: XF 498 CNS
[50] = test system: A498 renal
[51] = test system: KM20L2 colon
[52] = test system: DMS 114 small cell lung
[53] = test system: SN12C renal
[54] = test system: KM12 colon
[55] = test system: A549 NSCLC

C=Cc1ccccc1 (tested in a mixture with another compound) was tested, and the GI50 [1] was greater than 75 mg/L, the TGI [1] was greater than 75 mg/L and the outcome [2] was “inactive”. For the same molecule, the GI50 [3] was greater than 75 mg/L, the TGI [3] was greater than 75 mg/L and the GI50 [4] was greater than 75 mg/L. It also gave a TGI [4] greater than 75 mg/L, a GI50 [5] greater than 75 mg/L and a TGI [5] greater than 75 mg/L. The GI50 [6] was greater than 75 mg/L, the TGI [6] was greater than 75 mg/L and the GI50 [7] was greater than 75 mg/L. It also gave a TGI [7] greater than 75 mg/L, a GI50 [8] greater than 75 mg/L and a TGI [8] greater than 75 mg/L. For the same molecule, the GI50 [9] was greater than 75 mg/L, the TGI [9] was greater than 75 mg/L and the GI50 [10] was greater than 75 mg/L. For the same molecule, the TGI [10] was greater than 75 mg/L, the GI50 [11] was greater than 75 mg/L and the TGI [11] was greater than 75 mg/L. For the same molecule, the GI50 [12] was greater than 75 mg/L, the TGI [12] was greater than 75 mg/L and the GI50 [13] was greater than 75 mg/L. The TGI [13] was greater than 75 mg/L, the GI50 [14] was greater than 75 mg/L and the TGI [14] was greater than 75 mg/L. The GI50 [15] was greater than 75 mg/L, the TGI [15] was greater than 75 mg/L and the GI50 [16] was greater than 75 mg/L. For the same molecule, the TGI [16] was greater than 75 mg/L, the GI50 [17] was greater than 75 mg/L and the TGI [17] was greater than 75 mg/L. The GI50 [18] was greater than 75 mg/L, the TGI [18] was greater than 75 mg/L and the GI50 [19] was greater than 75 mg/L. For the same molecule, the TGI [19] was greater than 75 mg/L, the GI50 [20] was greater than 75 mg/L and the TGI [20] was greater than 75 mg/L. It also gave a GI50 [21] greater than 75 mg/L, a TGI [21] greater than 75 mg/L and a GI50 [22] greater than 75 mg/L. For the same molecule, the TGI [22] was greater than 75 mg/L, the GI50 [23] was greater than 75 mg/L and the TGI [23] was greater than 75 mg/L. It also gave a GI50 [24] greater than 75 mg/L, a TGI [24] greater than 75 mg/L and a GI50 [25] greater than 75 mg/L. It also gave a TGI [25] greater than 75 mg/L, a GI50 [26] greater than 75 mg/L and a TGI [26] greater than 75 mg/L. The GI50 [27] was greater than 75 mg/L, the TGI [27] was greater than 75 mg/L and the GI50 [28] was greater than 75 mg/L. The TGI [28] was greater than 75 mg/L, the GI50 [29] was greater than 75 mg/L and the TGI [29] was greater than 75 mg/L. For the same molecule, the GI50 [30] was greater than 75 mg/L, the TGI [30] was greater than 75 mg/L and the GI50 [31] was greater than 75 mg/L. For the same molecule, the TGI [31] was greater than 75 mg/L, the GI50 [32] was greater than 75 mg/L and the TGI [32] was greater than 75 mg/L. The GI50 [33] was greater than 75 mg/L, the TGI [33] was greater than 75 mg/L and the GI50 [34] was 59.5 mg/L. For the same molecule, the TGI [34] was greater than 75 mg/L, the GI50 [35] was greater than 75 mg/L and the TGI [35] was greater than 75 mg/L. For the same molecule, the GI50 [36] was greater than 75 mg/L, the TGI [36] was greater than 75 mg/L and the GI50 [37] was greater than 75 mg/L. It also gave a TGI [37] greater than 75 mg/L, a GI50 [38] greater than 75 mg/L and a TGI [38] greater than 75 mg/L. For the same molecule, the GI50 [39] was 28.3 mg/L, the TGI [39] was greater than 75 mg/L and the GI50 [40] was greater than 75 mg/L. The TGI [40] was greater than 75 mg/L, the GI50 [41] was 63.3 mg/L and the TGI [41] was greater than 75 mg/L. The GI50 [42] was greater than 75 mg/L, the TGI [42] was greater than 75 mg/L and the GI50 [43] was greater than 75 mg/L. It also gave a TGI [43] greater than 75 mg/L, a GI50 [44] greater than 75 mg/L and a TGI [44] greater than 75 mg/L. The GI50 [45] was greater than 75 mg/L, the TGI [45] was greater than 75 mg/L and the GI50 [46] was 48.4 mg/L. For the same molecule, the TGI [46] was greater than 75 mg/L, the GI50 [47] was greater than 75 mg/L and the TGI [47] was greater than 75 mg/L. For the same molecule, the GI50 [48] was greater than 75 mg/L, the TGI [48] was greater than 75 mg/L and the outcome [49] was “inactive”. For the same molecule, the GI50 [50] was greater than 75 mg/L, the TGI [50] was greater than 75 mg/L and the outcome [51] was “inactive”. The GI50 [52] was greater than 75 mg/L, the TGI [52] was greater than 75 mg/L and the GI50 [53] was greater than 75 mg/L. The TGI [53] was greater than 75 mg/L, the GI50 [54] was greater than 75 mg/L and the TGI [54] was greater than 75 mg/L. For the same molecule, the GI50 [55] was greater than 75 mg/L and the TGI [55] was greater than 75 mg/L.
